# Test results from US9187484B2 (Southern Research Institute, priority 2012, dated 2015).
# Target: T1, LRRK2 (G2019S) (Homo sapiens, UniProt Q5S007, G2019S)
# T1 construct: Recombinant GST-LRRK2 (delta970), purified from baculovirus infected insect cells (SF9); GST (N); host or cells: baculovirus infected insect cells (SF9)
# Test: LRRK2 inhibition, radiometric kinase assay with recombinant GST-LRRK2 (delta970) and peptide substrate
# Format: biochemical
# Details: GST-LRRK2 (delta970) G2019S 30 nM, ATP ~52 μM (Km), 30 min at 30° C.
# Method: Compounds were assessed for inhibition of LRRK2 inhibition using the following procedure.
# Recombinant GST-LRRK2 (delta970), purified from baculovirus infected insect cells (SF9), at least 90% pure and either wild-type sequence or bearing the pathogenic G2019S mutation, was combined into a kinase buffer at 30 nM concentration. Kinase buffer consists of 50 mM Tris HCl pH 7.4, 1 mM EDTA, and 50 μM peptide substrate (amino acid sequence […]). Experimental compounds or control (no compound) were added at desired concentrations in DMSO and water, where final concentration of DMSO in kinase reactions was 0.1% for all drug concentrations. Activation buffer that consists of a final concentration in the reactions of 10 mM MgCl2 and ATP (˜92 μM for WT-LRRK2 reactions and ˜52 μM for G2019S-LRRK2, which represent respective Km ATP concentrations) were added to each reaction, in addition to 0.5 μCi of gamma-32-P-dATP per reaction. Reactions were incubated at 1400 RPM at 30° C. for 30 min. and then spotted in triplicate directly onto a slot-blot apparatus fitted with phospho-cellulose paper and allowed to dry. Each slot was then washed with 10 mM phosphoric acid buffer until beta-radiation could not be detected in eluted wash buffer, usually ˜1 mL per slot. Paper within each slot were excised and radiation measured by liquid scintillation.
# T1 sequence (Q5S007 970-2527 G2019S limits assumed): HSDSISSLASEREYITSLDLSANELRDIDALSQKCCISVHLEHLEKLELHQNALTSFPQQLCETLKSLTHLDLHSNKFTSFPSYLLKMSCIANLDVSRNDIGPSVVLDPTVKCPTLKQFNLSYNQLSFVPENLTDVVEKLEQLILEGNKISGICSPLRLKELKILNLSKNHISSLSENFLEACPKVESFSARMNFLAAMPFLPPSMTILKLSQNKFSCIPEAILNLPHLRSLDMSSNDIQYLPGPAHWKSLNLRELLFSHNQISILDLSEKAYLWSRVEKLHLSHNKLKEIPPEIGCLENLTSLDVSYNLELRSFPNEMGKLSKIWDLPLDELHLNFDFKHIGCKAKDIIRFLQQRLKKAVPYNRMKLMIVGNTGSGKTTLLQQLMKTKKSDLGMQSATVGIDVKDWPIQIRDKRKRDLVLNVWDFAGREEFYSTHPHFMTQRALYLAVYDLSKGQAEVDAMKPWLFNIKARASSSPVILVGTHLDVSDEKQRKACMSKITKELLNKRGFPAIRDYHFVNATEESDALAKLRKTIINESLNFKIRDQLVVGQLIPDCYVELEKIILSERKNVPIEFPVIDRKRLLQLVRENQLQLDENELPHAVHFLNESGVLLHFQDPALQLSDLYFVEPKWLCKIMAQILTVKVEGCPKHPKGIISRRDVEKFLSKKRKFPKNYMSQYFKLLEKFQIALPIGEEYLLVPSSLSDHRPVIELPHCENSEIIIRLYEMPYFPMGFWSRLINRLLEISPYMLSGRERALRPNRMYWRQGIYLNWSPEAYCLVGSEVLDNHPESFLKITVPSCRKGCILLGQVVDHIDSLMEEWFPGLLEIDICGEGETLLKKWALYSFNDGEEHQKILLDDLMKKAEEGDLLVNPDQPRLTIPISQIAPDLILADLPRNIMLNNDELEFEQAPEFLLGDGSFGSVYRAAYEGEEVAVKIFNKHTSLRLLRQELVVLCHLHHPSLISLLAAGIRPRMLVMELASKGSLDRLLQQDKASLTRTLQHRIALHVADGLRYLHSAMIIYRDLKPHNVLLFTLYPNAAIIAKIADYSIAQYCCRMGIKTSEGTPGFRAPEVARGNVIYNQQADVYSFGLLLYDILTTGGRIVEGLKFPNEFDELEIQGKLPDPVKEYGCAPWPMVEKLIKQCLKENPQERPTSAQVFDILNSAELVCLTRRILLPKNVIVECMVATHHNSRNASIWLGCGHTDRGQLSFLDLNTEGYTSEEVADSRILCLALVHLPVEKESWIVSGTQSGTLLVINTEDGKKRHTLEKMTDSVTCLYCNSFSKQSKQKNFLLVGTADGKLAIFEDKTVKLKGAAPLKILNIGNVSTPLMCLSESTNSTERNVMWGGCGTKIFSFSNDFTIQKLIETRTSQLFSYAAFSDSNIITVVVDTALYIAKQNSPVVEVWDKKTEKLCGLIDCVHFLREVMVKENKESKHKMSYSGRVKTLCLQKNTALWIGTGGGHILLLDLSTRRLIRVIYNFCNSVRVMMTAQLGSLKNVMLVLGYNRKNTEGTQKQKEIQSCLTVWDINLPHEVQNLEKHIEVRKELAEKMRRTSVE
row,Structure (SMILES),IC50
1,"CCC(Sc1ccc2nnc(-c3cccs3)n2n1)C(=O)N1CCCCCC1 (stereo not drawn) [Example 50, 1-(azepan-1-yl)-2-((3-(thiophen-2-yl)-[1,2,4]triazolo[4,3-b]pyridazin-6-yl)thio)butan-1-one]",≥ 5000 nM
2,"Cc1ccc(-c2nnc3ccc(SCC(N)=O)nn23)s1 [Example 49, 2-((3-(5-methylthiophen-2-yl)-[1,2,4]triazolo[4,3-b]pyridazin-6-yl)thio)acetamide]",100 to 1000 nM
3,"CCC(Sc1ccc2nnc(-c3ccc(F)cc3)n2n1)C(=O)Nc1nccs1 (stereo not drawn) [Example 7, 2-((3-(4-fluorophenyl)-[1,2,4]triazolo[4,3-b]pyridazin-6-yl)thio)-N-(thiazol-2-yl)butanamide]",≥ 5000 nM
4,"CCOC(=O)C(CC)Sc1ccc2nnc(-c3ccccc3OC)n2n1 (stereo not drawn) [Example 68, ethyl 2-((3-(2-methoxyphenyl)-[1,2,4]triazolo[4,3-b]pyridazin-6-yl)thio)butanoate]",≥ 5000 nM
5,"CCCN(CCC)C(=O)C(C)Sc1ccc2nnc(-c3cccs3)n2n1 (stereo not drawn) [Example 123, N,N-dipropyl-2-((3-(thiophen-2-yl)-[1,2,4]triazolo[4,3-b]pyridazin-6-yl)thio)propanamide]",1000 to 5000 nM
6,"CC(Sc1ccc2nnc(-c3cccs3)n2n1)C(=O)N1CCCC1 (stereo not drawn) [Example 105, 1-(pyrrolidin-1-yl)-2-((3-(thiophen-2-yl)-[1,2,4]triazolo[4,3-b]pyridazin-6-yl)thio)propan-1-one]",< 100 nM
7,"NC(=O)CSc1ccc2nnc(-c3cc4ccccc4o3)n2n1 [Example 32, 2-((3-(benzofuran-2-yl)-[1,2,4]triazolo[4,3-b]pyridazin-6-yl)thio)acetamide]",≥ 5000 nM
8,"O=C(O)CSc1ccc2nnc(-c3ccc(F)cc3)n2n1 [Example 17, 2-((3-(4-fluorophenyl)-[1,2,4]triazolo[4,3-b]pyridazin-6-yl)thio)acetic acid]",≥ 5000 nM
9,"CCC(Nc1ccc2nnc(-c3cccs3)n2n1)C(=O)N1CCCCC1 (stereo not drawn) [Example 100, 1-(piperidin-1-yl)-2-((3-(thiophen-2-yl)-[1,2,4]triazolo[4,3-b]pyridazin-6-yl)amino)butan-1-one]",≥ 5000 nM
10,"CCC(Sc1ccc2nnc(-c3cccs3)n2n1)C(=O)N1CCCC(C)C1 (stereo not drawn) [Example 51, 1-(3-methylpiperidin-1-yl)-2-((3-(thiophen-2-yl)-[1,2,4]triazolo[4,3-b]pyridazin-6-yl)thio)butan-1-one]",100 to 1000 nM
11,"O=C(O)CSc1ccc2nnc(-c3csc4ccccc34)n2n1 [Example 38, 2-((3-(benzo[b]thiophen-3-yl)-[1,2,4]triazolo[4,3-b]pyridazin-6-yl)thio)acetic acid]",≥ 5000 nM
12,"CCC(Sc1ccc2nnc(-c3ccc(C)s3)n2n1)C(=O)O (stereo not drawn) [Example 89, 2-((3-(5-methylthiophen-2-yl)-[1,2,4]triazolo[4,3-b]pyridazin-6-yl)thio)butanoic acid]",100 to 1000 nM
13,"NC(=O)CSc1ccc2nnc(-c3cc4ccccc4s3)n2n1 [Example 29, 2-((3-(benzo[b]thiophen-2-yl)-[1,2,4]triazolo[4,3-b]pyridazin-6-yl)thio)acetamide]",≥ 5000 nM
14,"Cc1scc(-c2nnc3ccc(SCC(=O)O)nn23)c1-c1ccccc1 [Example 39, 2-((3-(5-methyl-4-phenylthiophen-3-yl)-[1,2,4]triazolo[4,3-b]pyridazin-6-yl)thio)acetic acid]",≥ 5000 nM
15,"CCC(Sc1ccc2nnc(-c3ccc(F)c(F)c3)n2n1)C(=O)N1CCCCC1 (stereo not drawn) [Example 96, 2-((3-(3,4-difluorophenyl)-[1,2,4]triazolo[4,3-b]pyridazin-6-yl)thio)-1-(piperidin-1-yl)butan-1-one]",100 to 1000 nM
16,"CCC(Sc1ccc2nnc(-c3cccs3)n2n1)C(=O)N1CCCCC1C (stereo not drawn) [Example 104, 1-(2-methylpiperidin-1-yl)-2-((3-(thiophen-2-yl)-[1,2,4]triazolo[4,3-b]pyridazin-6-yl)thio)butan-1-one]",100 to 1000 nM
17,"CCC(Sc1ccc2nnc(-c3cccs3)n2n1)C(=O)N1CCOCC1 (stereo not drawn) [Example 47, 1-morpholino-2-((3-(thiophen-2-yl)-[1,2,4]triazolo[4,3-b]pyridazin-6-yl)thio)butan-1-one]",100 to 1000 nM
18,"CCC(Sc1ccc2nnc(-c3cccc(F)c3)n2n1)C(=O)O (stereo not drawn) [Example 56, 2-((3-(3-fluorophenyl)-[1,2,4]triazolo[4,3-b]pyridazin-6-yl)thio)butanoic acid]",100 to 1000 nM
19,"CCC(Sc1ccc2nnc(-c3cccs3)n2n1)C(=O)N1CCC1 (stereo not drawn) [Example 114, 1-(azetidin-1-yl)-2-((3-(thiophen-2-yl)-[1,2,4]triazolo[4,3-b]pyridazin-6-yl)thio)butan-1-one]",100 to 1000 nM
20,"CCC(Sc1ccc2nnc(-c3ccc(OC)cc3)n2n1)C(N)=O (stereo not drawn) [Example 66, 2-((3-(4-methoxyphenyl)-[1,2,4]triazolo[4,3-b]pyridazin-6-yl)thio)butanamide]",100 to 1000 nM

row,Structure (SMILES),IC50
1,"CCC(Sc1ccc2nnc(-c3cccc(OC)c3)n2n1)C(N)=O (stereo not drawn) [Example 72, 2-((3-(3-methoxyphenyl)-[1,2,4]triazolo[4,3-b]pyridazin-6-yl)thio)butanamide]",100 to 1000 nM
2,"NC(=O)CSc1ccc2nnc(C3CCCCC3)n2n1 [Example 10, 2-((3-cyclohexyl-[1,2,4]triazolo[4,3-b]pyridazin-6-yl)thio)acetamide]",≥ 5000 nM
3,"CC(Sc1ccc2nnc(-c3nccs3)n2n1)C(=O)N1CCC1 (stereo not drawn) [Example 126, 1-(azetidin-1-yl)-2-((3-(thiazol-2-yl)-[1,2,4]triazolo[4,3-b]pyridazin-6-yl)thio)propan-1-one]",100 to 1000 nM
4,"O=C(CSc1ccc2nnc(-c3cccs3)n2n1)N1CCCC1 [Example 21, 1-(pyrrolidin-1-yl)-2-((3-(thiophen-2-yl)-[1,2,4]triazolo[4,3-b]pyridazin-6-yl)thio)ethanone]",100 to 1000 nM
5,"NC(=O)CSc1ccc2nnc(-c3ccc(F)cc3)n2n1 [Example 19, 2-((3-(4-fluorophenyl)-[1,2,4]triazolo[4,3-b]pyridazin-6-yl)thio)acetamide]",1000 to 5000 nM
6,"CCC(Sc1ccc2nnc(-c3ccc(OC)cc3)n2n1)C(=O)N1CCCCC1 (stereo not drawn) [Example 67, 2-((3-(4-methoxyphenyl)-[1,2,4]triazolo[4,3-b]pyridazin-6-yl)thio)-1-(piperidin-1-yl)butan-1-one]",100 to 1000 nM
7,"NC(=O)CSc1ccc2nnc(-c3ccco3)n2n1 [Example 26, 2-((3-(furan-2-yl)-[1,2,4]triazolo[4,3-b]pyridazin-6-yl)thio)acetamide]",100 to 1000 nM
8,"CCC(Sc1ccc2nnc(-c3ccccc3F)n2n1)C(=O)N1CCCCC1 (stereo not drawn) [Example 94, 2-((3-(2-fluorophenyl)-[1,2,4]triazolo[4,3-b]pyridazin-6-yl)thio)-1-(piperidin-1-yl)butan-1-one]",100 to 1000 nM
9,"CCC(Sc1ccc2nnc(-c3ccccc3F)n2n1)C(N)=O (stereo not drawn) [Example 80, 2-((3-(2-fluorophenyl)-[1,2,4]triazolo[4,3-b]pyridazin-6-yl)thio)butanamide]",100 to 1000 nM
10,"CCC(Sc1ccc2nnc(-c3cccs3)n2n1)C(=O)NCc1cccs1 (stereo not drawn) [Example 48, 2-((3-(thiophen-2-yl)-[1,2,4]triazolo[4,3-b]pyridazin-6-yl)thio)-N-(thiophen-2-ylmethyl)butanamide]",100 to 1000 nM
11,"CCC(Sc1ccc2nnc(-c3ccccc3F)n2n1)C(=O)O (stereo not drawn) [Example 55, 2-((3-(2-fluorophenyl)-[1,2,4]triazolo[4,3-b]pyridazin-6-yl)thio)butanoic acid]",100 to 1000 nM
12,"CCC(Sc1ccc2nnc(-c3ccc(C)s3)n2n1)C(=O)N1CCCCC1 (stereo not drawn) [Example 59, 2-((3-(5-methylthiophen-2-yl)-[1,2,4]triazolo[4,3-b]pyridazin-6-yl)thio)-1-(piperidin-1-yl)butan-1-one]",≥ 5000 nM
13,"CC(Sc1ccc2nnc(-c3cscn3)n2n1)C(=O)N1CCCCC1 (stereo not drawn) [Example 110, 1-(piperidin-1-yl)-2-((3-(thiazol-4-yl)-[1,2,4]triazolo[4,3-b]pyridazin-6-yl)thio)propan-1-one]",100 to 1000 nM
14,"CCC(Nc1ccc2nnc(-c3cccs3)n2n1)C(N)=O (stereo not drawn) [Example 99, 2-((3-(thiophen-2-yl)-[1,2,4]triazolo[4,3-b]pyridazin-6-yl)amino)butanamide]",≥ 5000 nM
15,"CCC(Sc1ccc2nnc(-c3cccs3)n2n1)C(=O)O (stereo not drawn) [Example 18, 2-((3-(thiophen-2-yl)-[1,2,4]triazolo[4,3-b]pyridazin-6-yl)thio)butanoic acid]",100 to 1000 nM
16,"NC(=O)CSc1ccc2nnc(C3CCCC3)n2n1 [Example 15, 2-((3-cyclopentyl-[1,2,4]triazolo[4,3-b]pyridazin-6-yl)thio)acetamide]",1000 to 5000 nM
17,"CCC(Sc1ccc2nnc(-c3cccs3)n2n1)C(=O)N1CCN(C)CC1 (stereo not drawn) [Example 58, 1-(4-methylpiperazin-1-yl)-2-((3-(thiophen-2-yl)-[1,2,4]triazolo[4,3-b]pyridazin-6-yl)thio)butan-1-one]",≥ 5000 nM
18,"CCC(Sc1ccc2nnc(-c3ccc(C(F)(F)F)cc3)n2n1)C(N)=O (stereo not drawn) [Example 78, 2-((3-(4-(trifluoromethyl)phenyl)-[1,2,4]triazolo[4,3-b]pyridazin-6-yl)thio)butanamide]",≥ 5000 nM
19,"Cc1ccc(-c2nnc3ccc(SCC(=O)N4CCCC4)nn23)cc1 [Example 25, 1-(pyrrolidin-1-yl)-2-((3-(p-tolyl)-[1,2,4]triazolo[4,3-b]pyridazin-6-yl)thio)ethanone]",1000 to 5000 nM
